Source: patent US7148227B2, “Fungicidal triazolopyrimidines, methods for producing the same, use thereof for combating harmful fungi and agents containing said substances” (BASF Aktiengesellschaft, priority 2002, dated 2006)

melting point [°C]	SMILES
207	N#Cc1ccc(-c2c(Cl)nc3ncnn3c2NC2CCCC2)cc1 [I-3]
161	CSc1cc(F)c(-c2c(Cl)nc3ncnn3c2NCC(F)(F)F)cc1F [I-8]
